Values quoted from earlier work as cited in patent US9682109B2, “Antiviral resistance mutants and applications thereof” (ABL SA, priority 2005, dated 2017).
Counter-ions that a name gives are not always drawn.

What was measured:
[1] = tested on: HBV; settings: 30 mg daily dose, over 12 weeks, phase II studies (Heathcote et al 1998)
[2] = tested on: wild-type and lamivudine-resistant strains of HBV
[3] = tested on: HBV replication
[4] = tested on: HBV
[5] = tested on: HIV

Structure (SMILES)	mean decrease in viremia [1] [log10]	clinical activity [2]	inhibitor of HBV replication [3]	antiviral activity against HBV [4]	antiviral activity against HIV [5]
CC(C)(C)C(=O)OCOP(=O)(COCCn1cnc2c(N)ncnc21)OCOC(=O)C(C)(C)C [ADV, adefovir dipivoxil]	4	demonstrated clinical activity	potent inhibitor		
Nc1nc(=O)n([C@@H]2CS[C@H](CO)O2)cc1F [FTC, (−)-β-L-2′-3′-dideoxy-5-fluoro-3′-thiacydidine]				activity	activity
CC(C)OC(=O)OCOP(=O)(CO[C@H](C)Cn1cnc2c(N)ncnc21)OCOC(=O)OC(C)C [TFV, tenofovir disoproxil fumarate]				antiviral activity	antiviral activity
